Data as given in US8575197B2, “Pyrolinone derivative and pharmaceutical composition comprising the same” (Shionogi & Co., Ltd., priority 2008, dated 2013).
pIC50: −log10 of the molar value.

Biological target: human P2X3 receptor (Homo sapiens (Human), UniProt P56373)
Test: P2X3 receptor inhibition, ATP-evoked Fluo-3 calcium fluorescence (FDSS 3000)
Assay type: cell-based
Conditions: C6BU-1 cell transfected with human P2X3 receptor gene; ATP-evoked Fluo-3 fluorescence
Method in brief: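 C6BU-1 cells stably transfected with human P2X3, loaded with 4 μM Fluo-3-AM for 1 h at 37 °C in HEPES buffer pH 7.5 with probenecid. Compound added 5 min before 40 nM ATP solution; fluorescence followed 3 min. IC50 from ratio of peak post-ATP to baseline fluorescence.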

human P2X3 receptor, sequence (P56373 whole entry): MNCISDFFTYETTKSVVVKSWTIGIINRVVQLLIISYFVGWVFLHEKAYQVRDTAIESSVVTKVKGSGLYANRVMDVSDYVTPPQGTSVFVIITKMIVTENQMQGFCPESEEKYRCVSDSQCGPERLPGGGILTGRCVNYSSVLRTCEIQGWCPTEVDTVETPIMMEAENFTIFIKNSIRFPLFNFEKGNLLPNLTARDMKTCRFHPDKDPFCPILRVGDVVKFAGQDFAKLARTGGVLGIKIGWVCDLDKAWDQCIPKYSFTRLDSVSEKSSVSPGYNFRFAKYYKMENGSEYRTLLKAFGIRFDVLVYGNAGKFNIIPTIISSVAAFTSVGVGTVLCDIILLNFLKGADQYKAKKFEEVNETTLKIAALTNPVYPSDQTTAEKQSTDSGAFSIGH

| pIC50 | SMILES |
| --- | --- |
| 6.98 | CCCc1ccc(N2C(=O)c3[nH]nc(C(C)(C)C)c3C2c2ccccc2OC)cc1 (stereo not shown) [II-001] |
| 6.66 | COc1ccccc1C1c2c(C(C)(C)C)n[nH]c2C(=O)N1c1ccc(OC(C)C)cc1 (stereo not shown) [II-002] |
| 6.85 | COc1ccccc1C1c2c(C(C)(C)C)n[nH]c2C(=O)N1c1ccc(C(C)(C)C)cc1 (stereo not shown) [II-003] |
| 6.42 | COc1ccccc1C1c2c(C(C)(C)C)n[nH]c2C(=O)N1c1ccc(SC(F)(F)F)cc1 (stereo not shown) [II-004] |
| 6.61 | CC(C)(C)c1n[nH]c2c1C(c1cccc3c1OCO3)N(c1ccc(-c3ccon3)cc1)C2=O (stereo not shown) [II-006] |
| 7.21 | COc1ncccc1C1c2c(C(C)(C)C)n[nH]c2C(=O)N1c1ccc(SC)cc1 (stereo not shown) [II-007] |
| 7.27 | COc1ccccc1C1c2c(C(C)(C)CO)n[nH]c2C(=O)N1c1ccc(SC)cc1 (stereo not shown) [II-009] |
| 6.87 | COc1ccccc1C1c2c(C(C)(C)COC(C)=O)n[nH]c2C(=O)N1c1ccc(SC)cc1 (stereo not shown) [II-010] |
| 6.50 | COc1ccccc1C1c2c(C(C)(C)CO)n[nH]c2C(=O)N1c1ccc(N(C)C)cc1 (stereo not shown) [II-011] |
| 8.40 | CC(C)(C)c1n[nH]c2c1C(c1ccccc1OCCO)N(c1ccc(-c3cccs3)cc1)C2=O (stereo not shown) [II-012] |
| 7.72 | CSc1ccc(N2C(=O)c3[nH]nc(C(C)(C)C)c3C2c2ccccc2OCCO)cc1 (stereo not shown) [II-013] |
| 7.77 | CC(C)(C)c1n[nH]c2c1C(c1ccccc1OCCO)N(c1ccc(-c3nccs3)cc1)C2=O (stereo not shown) [II-014] |
| 7.06 | Cc1cc(-c2ccc(N3C(=O)c4[nH]nc(C(C)(C)C)c4C3c3ccccc3OCCO)cc2)on1 (stereo not shown) [II-015] |
| 6.80 | Cc1noc(-c2ccc(N3C(=O)c4[nH]nc(C(C)(C)C)c4C3c3ccccc3OCCO)cc2)n1 (stereo not shown) [II-016] |
| 7.27 | Cc1nc(-c2ccc(N3C(=O)c4[nH]nc(C(C)(C)C)c4C3c3ccccc3OCCO)cc2)no1 (stereo not shown) [II-017] |
| 7.66 | COCCOc1ccccc1C1c2c(C(C)(C)C)n[nH]c2C(=O)N1c1ccc(-c2ccon2)cc1 (stereo not shown) [II-018] |
| 7.68 | CC(C)Oc1ccccc1C1c2c(C(C)(C)C)n[nH]c2C(=O)N1c1ccc(-c2ccon2)cc1 (stereo not shown) [II-019] |
| 8.10 | COC(=O)COc1ccccc1C1c2c(C(C)(C)C)n[nH]c2C(=O)N1c1ccc(-c2ccsc2)cc1 (stereo not shown) [II-020] |
| 8.05 | COC(=O)COc1ccccc1C1c2c(C(C)(C)C)n[nH]c2C(=O)N1c1ccc(-c2cccs2)cc1 (stereo not shown) [II-021] |
| 8.40 | CC(C)(C)c1n[nH]c2c1C(c1ccccc1OCC(=O)O)N(c1ccc(-c3cccs3)cc1)C2=O (stereo not shown) [II-022] |
| 8.40 | CC(C)(C)c1n[nH]c2c1C(c1ccccc1OCC(=O)O)N(c1ccc(-c3ccsc3)cc1)C2=O (stereo not shown) [II-023] |
| 7.21 | COCCOc1ccccc1C1c2c(C(C)(C)C)n[nH]c2C(=O)N1c1ccc(-c2nc(C)no2)cc1 (stereo not shown) [II-024] |
| 7.82 | COCCOc1ccccc1C1c2c(C(C)(C)C)n[nH]c2C(=O)N1c1ccc(-c2noc(C)n2)cc1 (stereo not shown) [II-025] |
| 7.64 | COCCOc1ccccc1C1c2c(C(C)(C)C)n[nH]c2C(=O)N1c1ccc(SC)cc1 (stereo not shown) [II-026] |
| 8.10 | COCCOc1ccccc1C1c2c(C(C)(C)C)n[nH]c2C(=O)N1c1ccc(-c2ccco2)cc1 (stereo not shown) [II-027] |
| 7.85 | COC(=O)COc1ccccc1C1c2c(C(C)(C)C)n[nH]c2C(=O)N1c1ccc(-c2ccon2)cc1 (stereo not shown) [II-028] |
| 7.05 | CC(C)(C)c1n[nH]c2c1C(c1ccccc1OCC(=O)O)N(c1ccc(-c3ccon3)cc1)C2=O (stereo not shown) [II-029] |

| pIC50 | SMILES |
| --- | --- |
| 6.89 | CN(C)CCOc1ccccc1C1c2c(C(C)(C)C)n[nH]c2C(=O)N1c1ccc(-c2ccon2)cc1 (stereo not shown) [II-030] |
| 7.74 | CN(C)CCOc1ccccc1C1c2c(C(C)(C)C)n[nH]c2C(=O)N1c1ccc(-c2ccsc2)cc1 (stereo not shown) [II-031] |
| 8.22 | COCCOc1ncccc1C1c2c(C(C)(C)C)n[nH]c2C(=O)N1c1ccc(-c2ccsc2)cc1 (stereo not shown) [II-032] |
| 6.93 | COCCOc1ncccc1C1c2c(C(C)(C)C)n[nH]c2C(=O)N1c1ccc(-c2ccon2)cc1 (stereo not shown) [II-033] |
| 7.34 | COCCOc1ncccc1C1c2c(C(C)(C)C)n[nH]c2C(=O)N1c1ccc(SC)cc1 (stereo not shown) [II-034] |
| 8.22 | COCCOc1ncccc1C1c2c(C(C)(C)C)n[nH]c2C(=O)N1c1ccc(-c2cccs2)cc1 (stereo not shown) [II-035] |
| 6.64 | CC(C)(C)c1n[nH]c2c1C(c1cccnc1OCCO)N(c1ccc(-c3ccon3)cc1)C2=O (stereo not shown) [II-036] |
| 8.10 | COCCOc1ncccc1C1c2c(C(C)(C)C)n[nH]c2C(=O)N1c1ccc(-c2ccco2)cc1 (stereo not shown) [II-037] |
| 7.85 | COCCOc1ncccc1C1c2c(C(C)(C)C)n[nH]c2C(=O)N1c1ccc(-c2ccoc2)cc1 (stereo not shown) [II-038] |
| 8.30 | CC(C)(C)c1n[nH]c2c1C(c1cccnc1OCCO)N(c1ccc(-c3ccsc3)cc1)C2=O (stereo not shown) [II-039] |
| 7.15 | CSc1ccc(N2C(=O)c3[nH]nc(C(C)(C)C)c3C2c2cccnc2OCCO)cc1 (stereo not shown) [II-040] |
| 7.57 | CC(C)(C)c1n[nH]c2c1C(c1cccnc1OCCO)N(c1ccc(-c3ccoc3)cc1)C2=O (stereo not shown) [II-041] |
| 8.00 | CC(C)(C)c1n[nH]c2c1C(c1cccnc1OCCO)N(c1ccc(-c3cccs3)cc1)C2=O (stereo not shown) [II-042] |
| 7.77 | CC(C)(C)c1n[nH]c2c1C(c1cccnc1OCCO)N(c1ccc(-c3ccco3)cc1)C2=O (stereo not shown) [II-043] |
| 6.24 | CC(C)c1n[nH]c2c1C(c1cccnc1OCCO)N(c1ccc(-c3ccon3)cc1)C2=O (stereo not shown) [II-044] |
| 7.80 | CC(C)c1n[nH]c2c1C(c1cccnc1OCCO)N(c1ccc(-c3ccsc3)cc1)C2=O (stereo not shown) [II-045] |
| 6.06 | Cc1nc(-c2ccc(N3C(=O)c4[nH]nc(C(C)C)c4C3c3cccnc3OCCO)cc2)no1 (stereo not shown) [II-046] |
| 7.96 | CC(C)c1n[nH]c2c1C(c1ccccc1OCC(=O)O)N(c1ccc(-c3ccsc3)cc1)C2=O (stereo not shown) [II-047] |
| 7.24 | COc1ncccc1C1c2c(C(C)C)n[nH]c2C(=O)N1c1ccc(-c2ccsc2)cc1 (stereo not shown) [II-048] |
| 7.96 | CNC(=O)COc1ccccc1C1c2c(C(C)C)n[nH]c2C(=O)N1c1ccc(-c2ccsc2)cc1 (stereo not shown) [II-049] |
| 8.15 | CC(C)c1n[nH]c2c1C(c1ccccc1OCC(N)=O)N(c1ccc(-c3ccsc3)cc1)C2=O (stereo not shown) [II-050] |
| 8.30 | CC(C)c1n[nH]c2c1C(c1ccccc1OCC(=O)NN)N(c1ccc(-c3ccsc3)cc1)C2=O (stereo not shown) [II-051] |
| 7.48 | CC(C)c1n[nH]c2c1C(c1cccnc1OCC(=O)O)N(c1ccc(-c3ccsc3)cc1)C2=O (stereo not shown) [II-052] |
| 7.46 | CNC(=O)COc1ncccc1C1c2c(C(C)C)n[nH]c2C(=O)N1c1ccc(-c2ccsc2)cc1 (stereo not shown) [II-053] |
| 7.59 | CC(C)c1n[nH]c2c1C(c1cccnc1OCC(N)=O)N(c1ccc(-c3ccsc3)cc1)C2=O (stereo not shown) [II-054] |
| 6.26 | COc1ccc(-c2n[nH]c3c2C(C2CCCCC2)N(c2ccc4[nH]ccc4c2)C3=O)cc1 (stereo not shown) [II-055] |
| 7.77 | CCOC(=O)c1ccc(N2C(=O)c3[nH]nc(C(C)(C)C)c3C2c2ccccc2OC)cc1 (stereo not shown) [II-057] |

| pIC50 | SMILES |
| --- | --- |
| 6.31 | CC(C)(C)c1n[nH]c2c1C(c1cccc[n+]1[O-])N(c1ccc(-c3ccon3)cc1)C2=O (stereo not shown) [II-058] |
| 7.34 | COc1cc(F)ccc1C1c2c(C(C)(C)C)n[nH]c2C(=O)N1c1ccc(-c2ccon2)cc1 (stereo not shown) [II-059] |
| 6.27 | COc1cccc(OC)c1C1c2c(C(C)(C)C)n[nH]c2C(=O)N1c1ccc(-c2ccon2)cc1 (stereo not shown) [II-060] |
| 6.78 | CC(C)(C)c1n[nH]c2c1C(c1ccccc1OC(F)(F)F)N(c1ccc(-c3ccon3)cc1)C2=O (stereo not shown) [II-061] |
| 6.95 | COc1ccc(F)cc1C1c2c(C(C)(C)C)n[nH]c2C(=O)N1c1ccc(-c2ccon2)cc1 (stereo not shown) [II-062] |
| 7.12 | COc1ccccc1C1c2c(C3(CO)CCCCC3)n[nH]c2C(=O)N1c1ccc(-c2ccon2)cc1 (stereo not shown) [II-064] |
| 6.82 | COc1ccccc1C1c2c(C(C)C)n[nH]c2CN1c1ccc(-c2ccsc2)cc1 (stereo not shown) [II-067] |
| 6.29 | COCc1ccccc1C1c2c(C(C)(C)C)n[nH]c2C(=O)N1c1ccc(-c2cc(C)no2)cc1 (stereo not shown) [II-068] |
| 6.38 | COCc1ccccc1C1c2c(C(C)(C)C)n[nH]c2C(=O)N1c1ccc(-c2noc(C)n2)cc1 (stereo not shown) [II-069] |
| 6.13 | COc1ccccc1C1c2c(C(C)(C)C)n[nH]c2C(=O)N1c1ccc(CN(C)C)cc1 (stereo not shown) [II-072] |
| 6.98 | COc1ccccc1C1c2c(CC(C)(C)C)n[nH]c2C(=O)N1c1ccc(-c2ccon2)cc1 (stereo not shown) [II-073] |
| 7.49 | CC(C)(C)c1n[nH]c2c1C(c1cccc[n+]1[O-])N(c1ccc(-c3ccsc3)cc1)C2=O (stereo not shown) [II-074] |
| 6.82 | CC(C)(C)c1n[nH]c2c1C(c1ccccc1OCC(N)=O)N(c1ccc(-c3ccon3)cc1)C2=O (stereo not shown) [II-075] |
| 7.92 | C[S+]([O-])CCOc1ccccc1C1c2c(C(C)(C)C)n[nH]c2C(=O)N1c1ccc(-c2ccsc2)cc1 (stereo not shown) [II-076] |
| 6.63 | CNC(=O)COc1ccccc1C1c2c(C(C)(C)C)n[nH]c2C(=O)N1c1ccc(-c2ccon2)cc1 (stereo not shown) [II-077] |
| 7.80 | CC(C)c1n[nH]c2c1C(c1ccccc1OCCN(C)C)N(c1ccc(-c3ccsc3)cc1)C2=O (stereo not shown) [II-078] |
| 7.96 | COc1ccccc1C1c2c(C(C)C)n[nH]c2C(=O)N1c1ccc(-c2ccsc2)cc1 (stereo not shown) [II-079] |
| 7.96 | CC(C)c1n[nH]c2c1C(c1ccccc1OCC[S+](C)[O-])N(c1ccc(-c3ccsc3)cc1)C2=O (stereo not shown) [II-080] |
| 6.72 | CC(C)c1n[nH]c2c1C(c1ccccc1N)N(c1ccc(-c3ccsc3)cc1)C2=O (stereo not shown) [II-081] |
| 7.36 | CC(=O)N(C)c1ccccc1C1c2c(C(C)C)n[nH]c2C(=O)N1c1ccc(-c2ccsc2)cc1 (stereo not shown) [II-082] |
| 7.62 | COc1ccccc1C1c2c(C3CC3)n[nH]c2C(=O)N1c1ccc(-c2ccsc2)cc1 (stereo not shown) [II-083] |
| 7.74 | CC(C)c1n[nH]c2c1C(c1ccccc1CN(C)C)N(c1ccc(-c3ccsc3)cc1)C2=O (stereo not shown) [II-084] |
| 7.64 | CC(=O)Nc1ccccc1C1c2c(C(C)C)n[nH]c2C(=O)N1c1ccc(-c2ccsc2)cc1 (stereo not shown) [II-085] |
| 7.49 | CC(C)c1n[nH]c2c1C(c1ccccc1CO)N(c1ccc(-c3ccsc3)cc1)C2=O (stereo not shown) [II-086] |
| 8.05 | CC(C)c1n[nH]c2c1C(c1ccccc1NC(N)=O)N(c1ccc(-c3ccsc3)cc1)C2=O (stereo not shown) [II-087] |
